Source: US11054413B2, “Materials and methods for assaying living cells” (UNIVERSITY OF MARYLAND, COLLEGE PARK, priority 2014, dated 2021)
Entries after “also recorded” stand apart in the source; their conditions may differ.

Experiments:
[1] = test system: Patient-derived cells; assay: McTN and stem cell responses of patient-derived cells to drugs (Table 2, predicted); assay type: cell-based, human; conditions: 30 minutes at the concentration given
Method: Patient-derived cells are treated with either vehicle (0.1% DMSO) or each of the drugs in Table 2 at the indicated concentration for 30 minutes and then analyzed for McTN incidence.

[2] = test system: MDA-436 cells; assay: Automated McTN analysis (FIG. 24); assay type: cell-based, human; conditions: at least 10 random cells
Excerpt: FIG. 24. Automated McTN analysis. […] A gradient vector flow snake algorithm was used to define the cell edges and a local curvature maxima effectively identified McTN ends (yellow diamonds). […] This automated cell shape analysis will also enable calculations of average McTN length, curvature, etc. that will yield more multi-dimensional data for McTN studies.

[3] = test system: MDA-MB-436 cells; assay: Real-time McTN imaging of PEM-DOTAP tethered cells with drug treatment (FIG. 29B); assay type: cell-based, human; conditions: for McTN formation: PEM-DOTAP tether; for McTN dynamics over time: compared to vehicle control, time-lapse
Method: FIG. 29. Lipid tethering allows for real-time microtentacle imaging in response to drug treatment and minimizes effects of drift. (A) Microtentacle (arrows) imaging of MDA-MB-436 cells seeded on micro-slides with PEM-no tether (i-iii) and PEM-DOTAP tether (iv-vi). Representative […] slice (i and iv), maximum z-projection of 5 slices at one time point (ii and v), and maximum t-projection after 20 frames (iii and vi) are shown at 60× magnification. (B) Microtentacle (arrow) imaging of MDA-MB-436 cells seeded on micro-slides with PEM-DOTAP tether after treatment with 5 uM colchicine for 15 minutes and 1 μg/ml Taxol for 120 minutes. Maximum intensity z-projections of five […] slices at one time point are shown at 60× magnification. Scale bar represents […]
MDA-MB-436 cells were trypsinized, spun down, and resuspended in phenol red-free and serum-free DMEM. Cells were seeded on PEM coated micro-slides with 4 bilayers and PEM coated micro-slides with 4 bilayers and the addition of DOTAP (50,000 cells/channel). Cells were incubated for 1 h to allow for tethering. After 1 h, one wash was done where the existing media was gently removed from the bottom port of each channel and fresh media was added to top port. This wash was to ensure only tethered cells were analyzed. After this wash, CellMask orange cell membrane dye was added to each channel to a final concentration of 1:10,000. McTN imaging was done on an Olympus FV100 confocal laser scanning microscope at 60× magnification. Five 1 uM slices and 20 frames at a 10 sec frame rate were taken for at least five image sets for each condition. Colchicine was added to each channel at a final concentration of 5 uM and cells were imaged after 15 minutes. Taxol was added to each channel at final concentration of 1 μg/ml and imaged after 120 minutes. Cells were again imaged with five […] slices and 20 frames at a 10 second frame rate.

[4] = test system: MDA-436 breast tumor cells; assay: Quantitative image analysis of time-dependent McTN metrics and tip tracking (FIG. 36-37); assay type: cell-based, human
Excerpt: FIG. 36. Quantitative image analysis of time-dependent McTN metrics. A) MDA-436 breast tumor cells that were tethered with a PEM+DOTAP surface coating were imaged for McTNs with confocal microscopy (5 z-slices of 1 μm, max intensity projection shown). A custom MATLAB algorithm was applied to the image data to find the cell periphery (Perimeter trace) and then locate local points of maximum perimeter curvature (McTN Tracker). B) Analyzing cells at 10 s timepoints allows the dynamic movement of McTNs under vehicle-treated conditions to be appreciated (blue lines).
FIG. 37. Tracking individual McTN tip motion. Applying a particle-tracking algorithm to the McTN tips identified in FIG. 36 allows the movement of individual McTN tips (color-coded) to be followed over time.
Using breast cancer cell lines, we developed a custom MATLAB algorithm to identify McTN ends (points of local surface curvature maxima on a perimeter trace). Combined with automated identification of the cell body (erosion mask), both the number and lengths of individual McTNs can be defined. Now that we have succeeded in tethering tumor cells to PEM-DOTAP surfaces, it dramatically improves our ability to collect time-lapse confocal imaging without the blurring that occurs with even minor cell drift. […] By comparison, the variance of all three measures is reduced in Taxol-treated cells, reflecting the effect of stabilizing microtubules. Individual McTN tips can also be followed with MATLAB particle tracking to quantitate McTN dynamics (FIG. 37).

[5] = test system: MDA-MB-436 cells; assay: Tethering washing, cell retention; assay type: cell-based, human
Method: (§1) MDA-MB-436 and MCF-7 cells were seeded on PEM coated micro-slides with 4 bilayers and addition of DOPC or DOTAP (50,000 cells/channel). Cells were incubated for 1 h to allow for tethering. To quantify initial cell number, three images per channel were taken for each condition at time 0. After 1 h, existing media was gently removed from the bottom port of each channel and fresh media was added to the top port. Following a wash, three images were taken per channel for each condition using an Olympus CKX41 microscope at 4× magnification. This process was repeated for each wash. The area of the image occupied with cells (as a percent) was quantified using CellProfiler and the average from three images was calculated. The average percentage for each condition was then normalized to the area occupied at time 0.

[6] = test system: MCF-7 cells; assay: Tethering washing, cell retention; assay type: cell-based, human
Method: as §1

[7] = test system: tumor cells; assay: Retention of tethered cells after formaldehyde crosslinking of DOTAP to PEM (FIG. 38B); assay type: cell-based; conditions: DOTAP crosslinked to PEM with formaldehyde vs charge interaction, multiple washes
Excerpt: FIG. 38. PEM coating for McTN studies.
We assembled PEMs from alternating layers of polymethacrylic acid (PMA) and polyacrylamide (PAAm) to coat microfluidic channels with very thin (100-1000 Angstroms) multilayers that retain high optical clarity. […] This crosslinking approach enables us to conduct improved imaging, time-dependent drug treatments without causing cell drift, but also illustrates that photo-crosslinking could be used to develop patterned arrays to facilitate tumor cell mechanical measurements and cell fate studies.

[8] = test system: SkBr3 cells; conditions: Balzer et al. 2010, see FIG. 4; cited from earlier work
[9] = test system: SkBr3 cells; assay: McTN scoring in detached SkBr3 cells, confocal microscopy for tubulin (FIG. 4); assay type: cell-based; conditions: nonmetastatic SkBr3 cells
Excerpt: FIG. 4. Targeting cell division can increase McTNs. […] (Bars=mean±S.D from 3 expts. with McTNs scored blindly).

[10] = test system: CTCs; conditions: neoadjuvant treatment in advance of surgery; cited from earlier work
[11] = test system: stem cell characteristics; conditions: Gupta et al. 2009; cited from earlier work
[12] = test system: tumor cells; conditions: tumor cells treated with taxol; cited from earlier work
[13] = test system: epithelial cells; conditions: Liu et al. 2012; Suprynowicz et al. 2012; cited from earlier work
[14] = terminal lipid on 4 PMA/PAAm bilayers, successive washes
[15] = first wash, 4 PMA/PAAm bilayers, 1 h tethering
[16] = Taxol 1 μg/ml, PEM+DOTAP tethered
[17] = Taxol, McTN tip particle tracking

COc1cc2c(c(OC)c1OC)-c1ccc(OC)c(=O)cc1[C@@H](NC(C)=O)CC2 [Colchicine]
Predicted stemness & McTN effect [1]: Decrease
average number of McTNs per cell ([2]; colchicine 50 μM): significantly reduces the average number of McTNs per cell
McTN formation ([3]; colchicine 5 uM, 15 minutes): decreases microtentacles; also recorded: inhibited McTN formation
McTN dynamics over time ([3]; colchicine): shrinks McTNs and enhances cell blebbing
McTNs ([4]; Colchicine 50 μM, PEM+DOTAP tethered): completely inhibits McTN generation; also recorded: completely eliminates McTNs

C=C1C(=O)O[C@@H]2/C=C(\C)CC/C=C(\C)CC[C@@H]12 [Costunolide]
Predicted stemness & McTN effect [1]: Decrease

CCCCCCCC/C=C\CCCCCCCC(=O)OC[C@H](COP(=O)([O-])OCC[N+](C)(C)C)OC(=O)CCCCCCC/C=C\CCCCCCCC [DOPC, 1,2-dioleoyl-sn-glycero-3-phosphocholine]
tethering of tumor cells [5, 14]: unable to effectively tether either type of tumor cells
tethering of tumor cells [6, 14]: unable to effectively tether either type of tumor cells

CCCCCCCC/C=C\CCCCCCCC(=O)OCC(C[N+](C)(C)C)OC(=O)CCCCCCC/C=C\CCCCCCCC (stereo not shown) [DOTAP, 1,2-dioleoyl-3-trimethylammonium-propane]
cell retention [5, 15]: 38%
cell retention ([6]; after five washes): 15%
cell retention [6, 15]: 80%
retention of tethered tumor cells [7]: dramatically improves retention of tethered tumor cells during multiple washes; also recorded: significantly improves initial tethering efficiency and resistance to washing

CC(=O)O[C@@]12CO[C@@H]1C[C@H](O)[C@@]1(C)C(=O)[C@H](O)C3=C(C)[C@@H](OC(=O)[C@H](O)[C@@H](NC(=O)OC(C)(C)C)c4ccccc4)C[C@@](O)([C@@H](OC(=O)c4ccccc4)[C@H]21)C3(C)C [Docetaxel]
Predicted stemness & McTN effect [1]: Increase

O=S(=O)(c1cccc2cnccc12)N1CCCNCC1 [Fasudil]
Predicted stemness & McTN effect [1]: Increase

C/C(=C\c1csc(C)n1)[C@@H]1C[C@@H]2O[C@]2(C)CCC[C@H](C)[C@H](O)[C@@H](C)C(=O)C(C)(C)[C@@H](O)CC(=O)N1 [Ixabepilone]
Predicted stemness & McTN effect [1]: Increase

C/C1=C\[C@H](C)C[C@H](C)OC(=O)C[C@H](c2ccc(O)cc2)NC(=O)[C@@H](Cc2c(Br)[nH]c3ccccc23)N(C)C(=O)[C@H](C)NC(=O)[C@@H](C)C1 [Jasplakinolide]
McTNs [8]: strongly promote McTNs
Predicted stemness & McTN effect [1]: Decrease
levels of McTNs ([9]; Jas 500 nM): increases levels of McTNs dramatically

O=S(=O)(c1cccc2c(I)cccc12)N1CCCNCC1 [ML-7]
Predicted stemness & McTN effect [1]: Decrease

CC(=O)O[C@H]1C(=O)[C@@]2(C)[C@H]([C@H](OC(=O)c3ccccc3)[C@]3(O)C[C@H](OC(=O)[C@H](O)[C@@H](NC(=O)c4ccccc4)c4ccccc4)C(C)=C1C3(C)C)[C@]1(OC(C)=O)CO[C@@H]1C[C@@H]2O [Paclitaxel]
McTNs [8]: strongly promote McTNs
Predicted stemness & McTN effect [1]: Increase
increase of CTCs [10]: more than 1000 fold
average number of McTNs per cell ([2]; paclitaxel 1 μM): increases McTNs, but this does not reach significance
stem cell characteristics and tumor metastasis [11]: increases stem cell characteristics and even tumor metastasis
McTN formation ([3]; Taxol 1 μg/ml, 120 minutes): enhances McTNs; also recorded: enhanced McTN formation
McTN dynamics over time ([3]; taxol): hyperstabilizes McTNs dramatically decreasing their dynamics
lung trapping of tumor cells [12]: greater lung trapping of tumor cells
levels of McTNs ([9]; Paclitaxel-Taxol 1.2 μM): increases levels of McTNs dramatically
range of McTN measurements and variance of all metrics ([4]; Taxol 1 μg/ml, 10 s timepoints): reduced; also recorded: strongly reduces the range of McTN measurements and the variance of all metrics
McTN length [4, 16]: increases
number of McTNs per cell >4 μm from cell periphery (McTN number) [4, 16]: increases the number of McTNs per cell
McTN persistence (area over which a McTN moves) [4, 17]: make McTNs more persistent
average McTN speed [4, 17]: reduce average McTN speed

CN(C)S(=O)(=O)c1ccc2c(c1)/C(=C/c1cc3c([nH]1)CCCC3)C(=O)N2 [SU6656]
Predicted stemness & McTN effect [1]: Increase

CC[C@]1(O)C[C@@H]2CN(CCc3c([nH]c4ccccc34)[C@@](C(=O)OC)(c3cc4c(cc3OC)N(C)[C@H]3[C@@](O)(C(=O)OC)[C@H](OC(C)=O)[C@]5(CC)C=CCN6CC[C@]43[C@@H]65)C2)C1 [Vinblastine]
Predicted stemness & McTN effect [1]: Decrease

C[C@@H](N)[C@H]1CC[C@H](C(=O)Nc2ccncc2)CC1 [Y-27632]
Predicted stemness & McTN effect [1]: Increase
stem cell conversion [13]: conversion is occurring
